Key:
[1] = target: T1, Histone deacetylase 8 (Schistosoma mansoni) (UniProt A5H660); assay: Inhibition of Schistosoma mansoni KDAC8 at 30 uM using (FAM)-labeled peptide as substrate after 60 mins by microfluidic assay
T1 sequence (whole entry): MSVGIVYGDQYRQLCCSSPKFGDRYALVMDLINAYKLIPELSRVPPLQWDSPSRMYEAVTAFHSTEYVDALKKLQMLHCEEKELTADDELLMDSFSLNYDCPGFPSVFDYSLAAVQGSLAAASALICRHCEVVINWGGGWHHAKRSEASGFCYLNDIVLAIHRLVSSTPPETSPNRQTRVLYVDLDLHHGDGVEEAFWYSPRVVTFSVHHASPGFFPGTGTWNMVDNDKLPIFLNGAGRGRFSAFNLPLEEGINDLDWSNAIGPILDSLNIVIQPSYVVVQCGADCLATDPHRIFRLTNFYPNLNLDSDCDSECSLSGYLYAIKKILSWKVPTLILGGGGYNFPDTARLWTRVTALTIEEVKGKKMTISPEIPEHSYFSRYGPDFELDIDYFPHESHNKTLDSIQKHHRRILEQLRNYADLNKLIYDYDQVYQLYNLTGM

[2] = target: T2, Histone deacetylase 8 (Schistosoma mansoni, UniProt A5H660); assay: Inhibition of Schistosoma mansoni KDAC8 using (FAM)-labeled peptide as substrate after 60 mins by microfluidic assay; conditions: read-out: IC50
T2 sequence (A5H660 whole entry): T1 sequence (whole entry)

Row | SMILES | inhibition [1] [%] | IC50 [2] [µM]
1 | O=C(CCCCN1C(=O)[C@H](CO)N=C(c2ccccc2)c2ccccc21)NO | 0.46 | > 30
2 | CSCC[C@@H]1N=C(c2ccccc2)c2ccccc2N(CCCCC(=O)O)C1=O | 0 | > 30
3 | O=C1Nc2ccccc2C(c2ccccc2)=N[C@H]1Cc1ccccc1 | 0 | > 30
4 | C[C@@H]1N=C(c2ccccc2)c2ccccc2N(CCCCC(=O)NO)C1=O | 16.9 | > 30
5 | CC(C)(C)SC[C@H]1N=C(c2ccccc2)c2ccccc2NC1=O | 0 | > 30
6 | Cc1c(C)c(S(=O)(=O)NC(=N)NCCC[C@@H]2N=C(c3ccccc3)c3ccccc3N(CCCCC(=O)O)C2=O)c(C)c2c1OC(C)(C)C2 | 0 | > 30
7 | C[C@@H](OCc1ccccc1)[C@@H]1N=C(c2ccccc2)c2ccccc2N(CCCCC(=O)NO)C1=O | 20.5 | > 30
8 | COC(=O)CCCCN1C(=O)[C@H](Cc2ccccc2)N=C(c2ccccc2)c2ccccc21 | 0 | > 30
9 | CC(C)(C)OC(=O)n1c(C[C@@H]2N=C(c3ccccc3)c3ccccc3N(CCCCC(=O)O)C2=O)cc2ccccc21 | 0 | > 30
10 | O=C(CCCCN1C(=O)[C@H](CCC(=O)NC(c2ccccc2)(c2ccccc2)c2ccccc2)N=C(c2ccccc2)c2ccccc21)NO | 32.1 | > 30
11 | CC(C)(C)OC(=O)NCCCC[C@@H]1N=C(c2ccccc2)c2ccccc2N(CCCCC(=O)NO)C1=O | 25.1 | > 30
12 | CC(C)(C)OC(=O)C[C@@H]1N=C(c2ccccc2)c2ccccc2NC1=O | 0 | > 30
13 | COC(=O)CCCCN1C(=O)[C@H](CCSC)N=C(c2ccccc2)c2ccccc21 | 0 | > 30
14 | C[C@H](OCc1ccccc1)[C@@H]1N=C(c2ccccc2)c2ccccc2N(CCCCC(=O)O)C1=O | 0 | > 30
15 | O=C(CCCNC(=O)C[C@@H]1N=C(c2ccccc2)c2ccccc2NC1=O)NO | 70.3 | 12.8
16 | CC(C)(C)Oc1ccc(C[C@@H]2N=C(c3ccccc3)c3ccccc3N(CCCCC(=O)O)C2=O)cc1 | 0 | > 30
17 | COC(=O)CCCCN1C(=O)[C@H]([C@@H](C)OCc2ccccc2)N=C(c2ccccc2)c2ccccc21 | 0 | > 30
18 | COC(=O)CCCCN1C(=O)[C@H](CCCNC(=N)NS(=O)(=O)c2c(C)c(C)c3c(c2C)CC(C)(C)O3)N=C(c2ccccc2)c2ccccc21 | 0 | > 30
19 | O=C(O)CCCCN1C(=O)[C@H](CC(=O)O)N=C(c2ccccc2)c2ccccc21 | 0 | > 30
20 | CC(C)(C)OC[C@@H]1N=C(c2ccccc2)c2ccccc2NC1=O | 0 | > 30
21 | O=C(O)C[C@H]1N=C(c2ccccc2)c2ccccc2NC1=O | 0 | > 30
22 | O=C(O)CCCCN1C(=O)[C@H](Cc2cncn2C(c2ccccc2)(c2ccccc2)c2ccccc2)N=C(c2ccccc2)c2ccccc21 | 0 | > 30
23 | CSCC[C@@H]1N=C(c2ccccc2)c2ccccc2N(CCCCC(=O)NO)C1=O | 19.3 | > 30
24 | CC(C)(C)OC(=O)C[C@H]1N=C(c2ccccc2)c2ccccc2NC1=O | 0 | > 30
25 | COC(=O)CCCCN1C(=O)[C@H](COC(C)(C)C)N=C(c2ccccc2)c2ccccc21 | 0 | > 30
26 | O=C(CC[C@@H]1N=C(c2ccccc2)c2ccccc2NC1=O)NC(c1ccccc1)(c1ccccc1)c1ccccc1 | 10.4 | > 30

Row | SMILES | inhibition [1] [%] | IC50 [2] [µM]
27 | CC(C)(C)Oc1ccc(C[C@@H]2N=C(c3ccccc3)c3ccccc3NC2=O)cc1 | 0 | > 30
28 | O=C(C[C@H]1N=C(c2ccccc2)c2ccccc2NC1=O)NO | 0 | > 30
29 | CC(C)(C)OC(=O)C[C@@H]1N=C(c2ccccc2)c2ccccc2N(CCCCC(=O)O)C1=O | 0 | > 30
30 | COC(=O)CCCCN1C(=O)[C@H](CCCCNC(=O)OC(C)(C)C)N=C(c2ccccc2)c2ccccc21 | 0 | > 30
31 | O=C1Nc2ccccc2C(c2ccccc2)=N[C@H]1Cc1cn(C(c2ccccc2)(c2ccccc2)c2ccccc2)cn1 | 9.68 | > 30
32 | O=C(CCCCN1C(=O)[C@H](Cc2cc3ccccc3[nH]2)N=C(c2ccccc2)c2ccccc21)NO | 19.7 | > 30
33 | CC(C)[C@@H]1N=C(c2ccccc2)c2ccccc2N(CCCCC(=O)NO)C1=O | 20.6 | > 30
34 | CC(C)[C@@H]1NC(=O)[C@H]2CCCN2C(=O)[C@@H]2CCCN2C(=O)C[C@H](C(=O)NCCCC(=O)NO)NC1=O | < 26 | > 30
35 | COC(=O)CCCCN1C(=O)[C@H](Cc2ccc(OC(C)(C)C)cc2)N=C(c2ccccc2)c2ccccc21 | 0 | > 30
36 | COC(=O)CCCCN1C(=O)[C@H](CC(=O)NC(c2ccccc2)(c2ccccc2)c2ccccc2)N=C(c2ccccc2)c2ccccc21 | 2.19 | > 30
37 | CC[C@H](C)[C@@H]1N=C(c2ccccc2)c2ccccc2N(CCCCC(=O)O)C1=O | 0 | > 30
38 | O=C(O)C[C@@H]1N=C(c2ccccc2)c2ccccc2NC1=O | 0 | > 30
39 | CC(C)(C)OC[C@@H]1N=C(c2ccccc2)c2ccccc2N(CCCCC(=O)O)C1=O | 0 | > 30
40 | O=C(O)CCCCN1C(=O)CN=C(c2ccccc2)c2ccccc21 | 0 | > 30
41 | O=C(CCCCN1C(=O)[C@H](CCC(=O)NO)N=C(c2ccccc2)c2ccccc21)NO | 33.5 | > 30
42 | O=C(O)C[C@@H]1N=C(c2ccccc2)c2ccccc2N(CCCCC(=O)NO)C1=O | 12.4 | > 30
43 | CC(C)[C@@H]1NC(=O)[C@@H]2CCCN2C(=O)[C@@H]2CCCN2C(=O)C[C@@H](C(=O)NCCCC(=O)NO)NC1=O | 32 | > 30
44 | CC(OCc1ccccc1)[C@@H]1N=C(c2ccccc2)c2ccccc2NC1=O (single isomer, unassigned) | 0 | > 30
45 | NC(=O)CC[C@@H]1N=C(c2ccccc2)c2ccccc2N(CCCCC(=O)NO)C1=O | 11.6 | > 30
46 | O=C(CCCCN1C(=O)[C@H](Cc2cnc[nH]2)N=C(c2ccccc2)c2ccccc21)NO | 4.11 | > 30
47 | COC(=O)CCCCN1C(=O)[C@H](CC(=O)OC(C)(C)C)N=C(c2ccccc2)c2ccccc21 | 0 | > 30
48 | CC(C)(C)OC(=O)NCCCC[C@@H]1N=C(c2ccccc2)c2ccccc2N(CCCCC(=O)O)C1=O | 0 | > 30
49 | CC[C@H](C)[C@@H]1N=C(c2ccccc2)c2ccccc2N(CCCCC(=O)OC)C1=O | 0 | > 30
50 | O=C(CCCCN1C(=O)[C@H](Cc2ccc(O)cc2)N=C(c2ccccc2)c2ccccc21)NO | 0 | > 30
51 | CC(C)(C)Oc1ccc(C[C@@H]2N=C(c3ccccc3)c3ccccc3N(CCCCC(=O)NO)C2=O)cc1 | 74 | 10.3
52 | O=C(O)CC[C@@H]1N=C(c2ccccc2)c2ccccc2N(CCCCC(=O)NO)C1=O | 13.4 | > 30

From ChEMBL document CHEMBL4014283, “Structural insights of SmKDAC8 inhibitors: Targeting Schistosoma epigenetics through a combined structure-based 3D QSAR, in vitro and synthesis strategy” (Bioorg Med Chem, 2017)
